Test results from patent US10759822B2 (priority 2016, dated 2020).

How the values were obtained:
[1] = mouse, in vivo
[2] = mouse, in vivo; for MRT0-t: Kunming, iv, 1 mg/kg

Row | Compound | (AUC0-t)prodrug group/(AUC0-t)prototype drug group [1] | (AUC0-t)prodrug/(AUC0-t)prototype drug [2] | MRT0-t [2] [h]
1 | CCSS/C(CCOC(=O)CCC(=O)OC1CCC(N(C)C(=O)c2ccc3nonc3c2)CC1)=C(/C)N(C)C=O (stereo not drawn) [Compound 1, Succinic acid anti-4-[(benzo[c][1,2,5]oxadiazole-5-carbonyl)-methyl-amino]-cyclohexyl ester 3-ethyldisulfanyl-4-(formyl-methyl-amino)-pent-3-enyl ester] | 0.48 | 1.55 | –
2 | CCCSS/C(CCOC(=O)CCC(=O)OC1CCC(N(C)C(=O)c2ccc3nonc3c2)CC1)=C(/C)N(C)C=O (stereo not drawn) [Compound 2, Succinic acid anti-4-[(benzo[c][1,2,5]oxadiazole-5-carbonyl)-methyl-amino]-cyclohexyl ester 3-propyldisulfanyl-4-(formyl-methyl-amino)-pent-3-enyl ester] | 0.49 | 1.72 | –
3 | C/C(=C(\CCOC(=O)CCC(=O)OC1CCC(N(C)C(=O)c2ccc3nonc3c2)CC1)SSC(C)C)N(C)C=O (stereo not drawn) [Compound 3, Succinic acid anti-4-[(benzo[c][1,2,5]oxadiazole-5-carbonyl)-methyl-amino]-cyclohexyl ester 3-isopropyldisulfanyl-4-(formyl-methyl-amino)-pent-3-enyl ester] | 0.62 | 1.77 | –
4 | CCCCSS/C(CCOC(=O)CCC(=O)OC1CCC(N(C)C(=O)c2ccc3nonc3c2)CC1)=C(/C)N(C)C=O (stereo not drawn) [Compound 4, Succinic acid anti-4-[(benzo[c][1,2,5]oxadiazole-5-carbonyl)-methyl-amino]-cyclohexyl ester 3-butyldisulfanyl-4-(formyl-methyl-amino)-pent-3-enyl ester] | 0.68 | 1.56 | –
5 | C/C(=C(\CCOC(=O)CCC(=O)OC1CCC(N(C)C(=O)c2ccc3nonc3c2)CC1)SSCC(C)C)N(C)C=O (stereo not drawn) [Compound 5, Succinic acid anti-4-[(benzo[c][1,2,5]oxadiazole-5-carbonyl)-methyl-amino]-cyclohexyl ester 3-isobutyldisulfanyl-4-(formyl-methyl-amino)-pent-3-enyl ester] | 0.67 | 1.70 | –
6 | CCCCCSS/C(CCOC(=O)CCC(=O)OC1CCC(N(C)C(=O)c2ccc3nonc3c2)CC1)=C(/C)N(C)C=O (stereo not drawn) [Compound 6, Succinic acid anti-4-[(benzo[c][1,2,5]oxadiazole-5-carbonyl)-methyl-amino]-cyclohexyl ester 3-pentyldisulfanyl-4-(formyl-methyl-amino)-pent-3-enyl ester] | 0.62 | 1.88 | –
7 | C/C(=C(\CCOC(=O)CCC(=O)OC1CCC(N(C)C(=O)c2ccc3nonc3c2)CC1)SSCCC(C)C)N(C)C=O (stereo not drawn) [Compound 7, Succinic acid anti-4-[(benzo[c][1,2,5]oxadiazole-5-carbonyl)-methyl-amino]-cyclohexyl ester 3-isopentyldisulfanyl-4-(formyl-methyl-amino)-pent-3-enyl ester] | 0.53 | 1.49 | –
8 | C/C(=C(\CCOC(=O)CCC(=O)OC1CCC(N(C)C(=O)c2ccc3nonc3c2)CC1)SSCc1ccccc1)N(C)C=O (stereo not drawn) [Compound 8, Succinic acid anti-4-[(benzo[c][1,2,5]oxadiazole-5-carbonyl)-methyl-amino]-cyclohexyl ester 3-benzyldisulfanyl-4-(formyl-methyl-amino)-pent-3-enyl ester] | 0.62 | 1.73 | –
9 | CCSS/C(CCOC(=O)CCCC(=O)OC1CCC(N(C)C(=O)c2ccc3nonc3c2)CC1)=C(/C)N(C)C=O (stereo not drawn) [Compound 9, Pentanedioic acid anti-4-[(benzo[c][1,2,5]oxadiazole-5-carbonyl)-methyl-amino]-cyclohexyl ester 3-ethyldisulfanyl-4-(formyl-methyl-amino)-pent-3-enyl ester] | 0.51 | 1.74 | –
10 | CCCSS/C(CCOC(=O)CCCC(=O)OC1CCC(N(C)C(=O)c2ccc3nonc3c2)CC1)=C(/C)N(C)C=O (stereo not drawn) [Compound 10, Pentanedioic acid anti-4-[(benzo[c][1,2,5]oxadiazole-5-carbonyl)-methyl-amino]-cyclohexyl ester 3-propyldisulfanyl-4-(formyl-methyl-amino)-pent-3-enyl ester] | 0.47 | 1.86 | –
11 | C/C(=C(\CCOC(=O)CCCC(=O)OC1CCC(N(C)C(=O)c2ccc3nonc3c2)CC1)SSC(C)C)N(C)C=O (stereo not drawn) [Compound 11, Pentanedioic acid anti-4-[(benzo[c][1,2,5]oxadiazole-5-carbonyl)-methyl-amino]-cyclohexyl ester 3-isopropyldisulfanyl-4-(formyl-methyl-amino)-pent-3-enyl ester] | 0.72 | 1.92 | –
12 | CCCCSS/C(CCOC(=O)CCCC(=O)OC1CCC(N(C)C(=O)c2ccc3nonc3c2)CC1)=C(/C)N(C)C=O (stereo not drawn) [Compound 12, Pentanedioic acid anti-4-[(benzo[c][1,2,5]oxadiazole-5-carbonyl)-methyl-amino]-cyclohexyl ester 3-butyldisulfanyl-4-(formyl-methyl-amino)-pent-3-enyl ester] | 0.46 | 1.92 | –
13 | C/C(=C(\CCOC(=O)CCCC(=O)OC1CCC(N(C)C(=O)c2ccc3nonc3c2)CC1)SSCC(C)C)N(C)C=O (stereo not drawn) [Compound 13, Pentanedioic acid anti-4-[(benzo[c][1,2,5]oxadiazole-5-carbonyl)-methyl-amino]-cyclohexyl ester 3-isobutyldisulfanyl-4-(formyl-methyl-amino)-pent-3-enyl ester] | 0.60 | 1.96 | –
14 | CCCCCSS/C(CCOC(=O)CCCC(=O)OC1CCC(N(C)C(=O)c2ccc3nonc3c2)CC1)=C(/C)N(C)C=O (stereo not drawn) [Compound 14, Pentanedioic acid anti-4-[(benzo[c][1,2,5]oxadiazole-5-carbonyl)-methyl-amino]-cyclohexyl ester 3-pentyldisulfanyl-4-(formyl-methyl-amino)-pent-3-enyl ester] | 0.65 | 1.98 | –
15 | C/C(=C(\CCOC(=O)CCCC(=O)OC1CCC(N(C)C(=O)c2ccc3nonc3c2)CC1)SSCc1ccccc1)N(C)C=O (stereo not drawn) [Compound 16, Pentanedioic acid anti-4-[(benzo[c][1,2,5]oxadiazole-5-carbonyl)-methyl-amino]-cyclohexyl ester 3-benzyldisulfanyl-4-(formyl-methyl-amino)-pent-3-enyl ester] | 0.41 | 1.86 | –
16 | CCSS/C(CCOC(=O)CCCC(=O)OC1CCC(N(C)C(=O)c2ccc3nonc3c2)CC1)=C(/C)N(C=O)CC (stereo not drawn) [Compound 17, Pentanedioic acid anti-4-[(benzo[c][1,2,5]oxadiazole-5-carbonyl)-methyl-amino]-cyclohexyl ester 3-ethyldisulfanyl-4-(formyl-ethyl-amino)-pent-3-enyl ester] | 0.61 | 1.55 | –
17 | CCCN(C=O)/C(C)=C(/CCOC(=O)CCCC(=O)OC1CCC(N(C)C(=O)c2ccc3nonc3c2)CC1)SSCC (stereo not drawn) [Compound 18, Pentanedioic acid anti-4-[(benzo[c][1,2,5]oxadiazole-5-carbonyl)-methyl-amino]-cyclohexyl ester 3-ethyldisulfanyl-4-(formyl-propyl-amino)-pent-3-enyl ester] | 0.73 | 1.70 | –
18 | C/C(=C(\CCOC(=O)CCCC(=O)OC1CCC(N(C)C(=O)c2ccc3nonc3c2)CC1)SSCCC(C)C)N(C=O)CC(=O)OCC1OC(O)C(O)C(O)C1O [Compound 19, Pentanedioic acid anti-4-[(benzo[c][1,2,5]oxadiazole-5-carbonyl)-methyl-amino]-cyclohexyl ester 3-isopentyldisulfanyl-4-[formyl-(D-glucos-6-yl-carbonylmethyl)-amino]-pent-3-enyl ester] | 0.73 | 1.41 | –
19 | CCCCCCSS/C(CCOC(=O)CCCC(=O)OC1CCC(N(C)C(=O)c2ccc3nonc3c2)CC1)=C(/C)N(C=O)CC(=O)OCC1OC(O)C(O)C(O)C1O [Compound 21, Pentanedioic acid anti-4-[(benzo[c][1,2,5]oxadiazole-5-carbonyl)-methyl-amino]-cyclohexyl ester 3-hexyldisulfanyl-4-[formyl-(D-glucos-6-yl-carbonylmethyl)-amino]-pent-3-enyl ester] | – | 1.68 | 1.91
20 | CCSS/C(CCOC(=O)CCCC(=O)OC1CCC(N(C)C(=O)c2ccc3nonc3c2)CC1)=C(/C)N(C=O)CC(=O)OCC(O)C1OC(=O)C(O)=C1O (stereo not drawn) [Compound 22, Pentanedioic acid anti-4-[(benzo[c][1,2,5]oxadiazole-5-carbonyl)-methyl-amino]-cyclohexyl ester 3-ethyldisulfanyl-4-{[2-(3,4-dihydroxy-5-oxo-2,5-dihydro-furan-2-yl)-2-hydroxy-ethoxycarbonylmethyl]-formyl-amino}-pent-3-enyl ester] | – | 1.82 | 2.00
